Test results published in the supplement of paper PMC10307832.

Key:
Experiment in all cases: relative viability (nuclei count vs DMSO), 5 days (fraction); higher = more cells survive
[1] = compound: NS(=O)(=O)OC[C@@H]1C[C@@H](n2ccc3c(N[C@H]4CCc5ccccc54)ncnc32)C[C@@H]1O [MLN4924] + Cc1nc(Nc2ncc(C(=O)Nc3c(C)cccc3Cl)s2)cc(N2CCN(CCO)CC2)n1 [Dasatinib] (partner 0.075 µM)
How it was run: (§1)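 Each reported value is a median over duplicate plates. It expresses relative viability: treated-well nuclei count divided by vehicle-well nuclei count. Lung cancer cell lines in 1536-well plates were dosed by pin tool a day after seeding, alone with one drug or with a fixed anchor-drug dose plus five library-drug doses (not always all listed) in √10 steps, and nuclei were counted after 5 days.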

[2] = compound: CC[C@H](C)N1C=C(C2=C(C=C(C=C21)C3=CN=C(C=C3)N4CCNCC4)C(=O)NCC5=C(C=C(NC5=O)C)C)C [GSK126] + COc1cc2c(Oc3ccc(NC(=O)C4(C(=O)Nc5ccc(F)cc5)CC4)cc3F)ccnc2cc1OCCCN1CCOCC1 [Foretinib] (partner 0.25 µM)
How it was run: as §1

[3] = compound: CC[C@H](C)N1C=C(C2=C(C=C(C=C21)C3=CN=C(C=C3)N4CCNCC4)C(=O)NCC5=C(C=C(NC5=O)C)C)C [GSK126] + Nc1nc2[nH]cc(CCc3ccc(C(=O)N[C@@H](CCC(=O)O)C(=O)O)cc3)c2c(=O)[nH]1 [Pemetrexed] (partner 0.2 µM)
How it was run: as §1

[4] = compound: NS(=O)(=O)OC[C@@H]1C[C@@H](n2ccc3c(N[C@H]4CCc5ccccc54)ncnc32)C[C@@H]1O [MLN4924] + Nc1nc2[nH]cc(CCc3ccc(C(=O)N[C@@H](CCC(=O)O)C(=O)O)cc3)c2c(=O)[nH]1 [Pemetrexed] (partner 0.2 µM)
How it was run: as §1

Row | Cell Line | relative viability ([1]; first compound 0.04 µM) | relative viability ([1]; first compound 0.1265 µM) | relative viability ([1]; first compound 0.4 µM) | relative viability ([1]; first compound 1.265 µM) | relative viability ([1]; first compound 4 µM) | relative viability ([2]; first compound 0.08 µM) | relative viability ([2]; first compound 0.253 µM) | relative viability ([2]; first compound 0.8 µM) | relative viability ([2]; first compound 2.53 µM) | relative viability ([2]; first compound 8 µM) | relative viability ([3]; first compound 0.08 µM) | relative viability ([3]; first compound 0.253 µM) | relative viability ([3]; first compound 0.8 µM) | relative viability ([3]; first compound 2.53 µM) | relative viability ([3]; first compound 8 µM) | relative viability ([4]; first compound 0.04 µM) | relative viability ([4]; first compound 0.1265 µM) | relative viability ([4]; first compound 0.4 µM) | relative viability ([4]; first compound 1.265 µM) | relative viability ([4]; first compound 4 µM)
1 | NCI-H322M | 0.311 | 0.655 | 0.693 | 0.27 | 0.289 | 0.942 | 1.03 | 0.958 | 1.13 | 0.972 | 0.543 | 0.621 | 0.615 | 0.648 | 0.641 | 0.719 | 0.776 | 0.549 | 0.3 | 0.422
2 | NCI-H358 | 0.211 | 0.31 | 0.25 | 0.113 | 0.0832 | 0.742 | 0.629 | 0.66 | 0.859 | 0.786 | 0.184 | 0.182 | 0.174 | 0.166 | 0.197 | 0.177 | 0.16 | 0.134 | 0.107 | 0.128
3 | NCI-H441 | 0.603 | 0.47 | 0.337 | 0.212 | 0.141 | 0.889 | 0.866 | 0.975 | 0.926 | 0.715 | 0.289 | 0.281 | 0.272 | 0.248 | 0.267 | 0.248 | 0.222 | 0.234 | 0.139 | 0.187
4 | NCI-H460 | 0.495 | 0.657 | 0.849 | 0.377 | 0.0538 | 1.04 | 0.998 | 0.977 | 0.997 | 1.06 | 0.0714 | 0.0516 | 0.0631 | 0.0635 | 0.0781 | 0.0658 | 0.0623 | 0.0708 | 0.059 | 0.0457
5 | NCI-H520 | 0.216 | 0.225 | 0.253 | 0.171 | 0.173 | 1.04 | 0.693 | 0.719 | 0.78 | 0.909 | 0.781 | 0.792 | 0.743 | 0.705 | 0.733 | 0.489 | 0.368 | 0.271 | 0.193 | 0.172
6 | NCI-H596 | 0.623 | 0.594 |  | 0.644 | 0.744 | 0.854 | 0.497 | 1.08 | 0.975 | 0.809 | 0.496 | 0.464 | 0.441 | 0.45 | 0.472 | 0.49 | 0.511 | 0.405 | 0.496 | 0.437
7 | NCI-H647 | 0.235 | 0.195 | 0.113 | 0.0353 | 0.0361 | 1.21 | 1.23 | 0.971 | 1.45 | 1.26 | 0.236 | 0.197 | 0.188 | 0.163 | 0.19 | 0.156 | 0.119 | 0.0763 | 0.0395 | 0.0465
8 | NCI-H650 | 0.407 | 0.418 | 0.236 | 0.215 | 0.193 | 1.15 | 1.02 | 0.954 | 1.02 | 1.03 | 1.09 | 0.825 | 0.935 | 0.903 | 1.24 | 0.921 | 0.471 | 0.213 | 0.15 | 0.165
9 | NCI-H661 | 1 | 1.05 | 0.556 | 0.256 | 0.362 | 1.09 | 1.05 | 0.997 | 1.04 | 1.09 | 0.982 | 0.897 | 0.991 | 0.914 | 0.967 | 0.773 | 0.77 | 0.494 | 0.426 | 0.44
10 | NCI-H838 | 0.268 | 0.271 | 0.245 | 0.199 | 0.219 | 1.1 | 1.07 | 0.929 | 0.992 | 0.954 | 0.245 | 0.231 | 0.229 | 0.239 | 0.24 | 0.225 | 0.2 | 0.188 | 0.173 | 0.164
11 | NCI-H1355 | 0.715 | 0.792 | 0.767 | 0.481 | 0.216 | 1.05 | 1.05 | 0.964 | 1.09 | 0.979 | 1.15 | 1.12 | 0.996 | 1.03 | 1.06 | 1.01 | 1.07 | 0.879 | 0.547 | 0.256
12 | NCI-H1395 | 0.474 | 0.493 | 0.552 | 0.507 | 0.331 | 1.17 | 0.878 | 1.04 | 1.07 | 0.785 | 0.942 | 0.773 | 0.867 | 0.988 | 0.759 | 0.847 | 0.773 | 0.678 | 0.349 | 0.305
13 | NCI-H1437 | 0.276 | 0.456 | 0.556 | 0.235 | 0.11 | 1.32 | 1.29 | 1.14 | 1.26 | 1.27 | 0.298 | 0.325 | 0.306 | 0.305 | 0.353 | 0.314 | 0.275 | 0.28 | 0.208 | 0.177
14 | NCI-H1563 | 0.67 | 0.819 | 0.714 | 0.446 | 0.426 | 1.01 | 0.9 | 0.934 | 0.893 | 0.95 | 0.848 | 0.808 | 0.772 | 0.579 | 0.754 | 1.08 | 1.48 | 0.649 | 0.495 | 0.405
15 | NCI-H1650 | 0.41 | 0.291 | 0.267 | 0.166 | 0.179 | 1.45 | 1 | 0.934 | 1.12 | 1.09 | 0.393 | 0.437 | 0.39 | 0.302 | 0.344 | 0.377 | 0.471 | 0.248 | 0.168 | 0.185
16 | NCI-H1651 | 0.411 | 0.473 | 0.431 | 0.167 | 0.116 | 0.736 | 0.848 | 0.868 | 0.702 | 0.977 | 0.651 | 0.594 | 0.566 | 0.67 | 0.636 | 0.632 | 0.693 | 0.703 | 0.509 | 0.171
17 | NCI-H1666 | 0.898 | 0.781 | 0.503 | 0.238 | 0.28 | 0.997 | 0.925 | 0.918 | 0.921 | 0.917 | 0.872 | 0.936 | 0.766 | 0.796 | 0.807 | 0.734 | 0.742 | 0.645 | 0.409 | 0.488
18 | NCI-H1734 | 0.636 | 0.588 | 0.305 | 0.0902 | 0.102 | 0.931 | 0.868 | 0.771 | 0.817 | 0.904 | 0.406 | 0.411 | 0.463 | 0.448 | 0.461 | 0.497 | 0.514 | 0.252 | 0.128 | 0.125
19 | NCI-H1755 | 0.417 | 0.464 | 0.463 | 0.237 | 0.221 | 1.02 | 0.975 | 0.962 | 0.924 | 0.968 | 0.401 | 0.483 | 0.402 | 0.403 | 0.36 | 0.378 | 0.268 | 0.282 | 0.178 | 0.186
20 | NCI-H1793 | 0.384 | 0.366 | 0.408 | 0.345 | 0.325 | 0.799 | 0.519 | 0.581 | 0.776 | 0.885 | 0.981 | 0.825 | 0.876 | 0.916 | 0.932 | 0.892 | 0.698 | 0.914 | 0.433 | 0.303
21 | NCI-H1915 | 0.352 | 0.353 | 0.318 | 0.222 | 0.177 | 1.22 | 1.16 | 1.09 | 1.08 | 1.2 | 0.573 | 0.484 | 0.504 | 0.477 | 0.484 | 0.625 | 0.66 | 0.479 | 0.144 | 0.176
22 | NCI-H1944 | 0.218 | 0.232 | 0.23 | 0.155 | 0.133 | 0.918 | 0.837 | 0.854 | 0.872 | 0.956 | 0.719 | 0.641 | 0.607 | 0.654 | 0.567 | 0.602 | 0.56 | 0.405 | 0.186 | 0.157
23 | NCI-H1975 | 0.39 | 0.385 | 0.483 | 0.678 | 0.324 | 0.952 | 0.828 | 0.886 | 0.873 | 0.932 | 0.276 | 0.306 | 0.304 | 0.305 | 0.277 | 0.284 | 0.331 | 0.278 | 0.272 | 0.209
24 | NCI-H1993 | 0.622 | 0.524 | 0.557 | 0.491 | 0.51 | 0.704 | 0.812 | 0.726 | 0.845 | 0.859 | 0.583 | 0.555 | 0.628 | 0.586 | 0.687 | 0.592 | 0.471 | 0.421 | 0.441 | 0.382
25 | NCI-H2009 | 0.374 | 0.261 | 0.166 | 0.0589 | 0.0792 | 1.25 | 1.25 | 1.15 | 1.18 | 1.35 | 1.11 | 1.03 | 1 | 0.982 | 1.06 | 0.941 | 0.884 | 0.218 | 0.133 | 0.0755
26 | NCI-H2023 | 0.618 | 0.602 | 0.325 | 0.0611 | 0.0616 | 1.02 | 0.885 | 0.961 | 1.05 | 1.15 | 0.251 | 0.231 | 0.224 | 0.268 | 0.13 | 0.219 | 0.234 | 0.123 | 0.0635 | 0.09
